Key:
Liver microsome [1] = test: Drug metabolism in human liver microsomes treated with 10 uM [14C]vorapaxar after 120 mins by LC-MS/MS analysis; format: ADME; settings: 2 h
Cytochrome P450 3A5 [2] = target: T1, Cytochrome P450 3A5 (Homo sapiens, UniProt P20815); test: Drug level assessed as human recombinant CYP3A5-mediated drug metabolism treated with 25 uM [14C]vorapaxar after 120 mins by LC-MS/MS analysis in presence of NADPH; format: ADME; settings: recombinant enzyme, 2 h
Cytochrome P450 3A4 [3] = target: T2, Cytochrome P450 3A4 (Homo sapiens, UniProt P08684); test: Activity of human recombinant CYP3A4 assessed as enzyme-mediated drug metabolism treated with 10 uM [14C]vorapaxar after 120 mins by LC-MS/MS analysis in presence of NADPH; format: ADME; settings: 2 h
Liver microsome [4] = test: Drug level in human liver microsomes treated with 10 to 25 uM vorapaxar after 120 mins by LC-MS/MS analysis in presence of quinidine; format: ADME; settings: 2 h
Liver microsome [5] = test: Drug level in human liver microsomes treated with 10 to 25 uM vorapaxar after 120 mins by LC-MS/MS analysis in presence of alpha-napthoflavone; format: ADME; settings: 2 h
Liver microsome [6] = test: Drug level in human liver microsomes treated with 10 to 25 uM vorapaxar after 120 mins by LC-MS/MS analysis in presence of omeprazole; format: ADME; settings: 2 h
Cytochrome P450 3A5 [7] = target: T1, Cytochrome P450 3A5; test: Activity of human recombinant CYP3A5 assessed as enzyme-mediated drug metabolism treated with 10 uM [14C]vorapaxar after 120 mins by LC-MS/MS analysis in presence of NADPH; format: ADME; settings: 2 h
Cytochrome P450 2C9 = Cytochrome P450 2C9 (Homo sapiens, UniProt P11712); test: Activity of human recombinant CYP2C9 assessed as enzyme-mediated drug metabolism treated with 10 uM [14C]vorapaxar after 120 mins by LC-MS/MS analysis in presence of NADPH; format: ADME; settings: 2 h
Cytochrome P450 1A2 [8] = target: T3, Cytochrome P450 1A2 (Homo sapiens, UniProt P05177); test: Drug level assessed as human recombinant CYP1A2-mediated drug metabolism treated with 25 uM [14C]vorapaxar after 120 mins by LC-MS/MS analysis in presence of NADPH; format: ADME; settings: recombinant enzyme, 2 h
T3 sequence (P05177 whole entry): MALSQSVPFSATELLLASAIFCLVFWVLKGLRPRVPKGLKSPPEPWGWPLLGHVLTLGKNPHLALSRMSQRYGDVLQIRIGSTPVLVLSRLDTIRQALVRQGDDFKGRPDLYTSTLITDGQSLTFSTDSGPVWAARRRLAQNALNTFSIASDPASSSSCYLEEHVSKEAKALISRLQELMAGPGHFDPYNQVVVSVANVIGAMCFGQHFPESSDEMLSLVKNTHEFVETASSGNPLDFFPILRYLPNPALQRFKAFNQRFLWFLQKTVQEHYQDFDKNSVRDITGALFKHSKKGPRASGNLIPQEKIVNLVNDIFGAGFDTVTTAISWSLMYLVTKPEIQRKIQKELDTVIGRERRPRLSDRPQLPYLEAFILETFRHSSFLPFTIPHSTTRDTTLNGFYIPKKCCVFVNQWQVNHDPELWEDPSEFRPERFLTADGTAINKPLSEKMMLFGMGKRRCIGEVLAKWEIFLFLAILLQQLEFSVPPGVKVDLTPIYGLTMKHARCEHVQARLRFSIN

Cytochrome P450 2C19 [9] = target: T4, Cytochrome P450 2C19 (Homo sapiens, UniProt P33261); test: Drug level assessed as human recombinant CYP2C19-mediated drug metabolism treated with 25 uM [14C]vorapaxar after 120 mins by LC-MS/MS analysis in presence of NADPH; format: ADME; settings: recombinant enzyme, 2 h
Liver microsome [10] = test: Drug level in human liver microsomes treated with 10 to 25 uM vorapaxar after 120 mins by LC-MS/MS analysis in presence of CYP3A4-specific inhibitory antibody; format: ADME; settings: 2 h
Cytochrome P450 2C19 [11] = target: T4, Cytochrome P450 2C19; test: Activity of human recombinant CYP2C19 assessed as enzyme-mediated drug metabolism treated with 10 uM [14C]vorapaxar after 120 mins by LC-MS/MS analysis in presence of NADPH; format: ADME; settings: 2 h
Cytochrome P450 1A1 [12] = target: T5, Cytochrome P450 1A1 (Homo sapiens, UniProt P04798); test: Activity of human recombinant CYP1A1 assessed as enzyme-mediated drug metabolism treated with 10 uM [14C]vorapaxar after 120 mins by LC-MS/MS analysis in presence of NADPH; format: ADME; settings: 2 h
T5 sequence (P04798 whole entry): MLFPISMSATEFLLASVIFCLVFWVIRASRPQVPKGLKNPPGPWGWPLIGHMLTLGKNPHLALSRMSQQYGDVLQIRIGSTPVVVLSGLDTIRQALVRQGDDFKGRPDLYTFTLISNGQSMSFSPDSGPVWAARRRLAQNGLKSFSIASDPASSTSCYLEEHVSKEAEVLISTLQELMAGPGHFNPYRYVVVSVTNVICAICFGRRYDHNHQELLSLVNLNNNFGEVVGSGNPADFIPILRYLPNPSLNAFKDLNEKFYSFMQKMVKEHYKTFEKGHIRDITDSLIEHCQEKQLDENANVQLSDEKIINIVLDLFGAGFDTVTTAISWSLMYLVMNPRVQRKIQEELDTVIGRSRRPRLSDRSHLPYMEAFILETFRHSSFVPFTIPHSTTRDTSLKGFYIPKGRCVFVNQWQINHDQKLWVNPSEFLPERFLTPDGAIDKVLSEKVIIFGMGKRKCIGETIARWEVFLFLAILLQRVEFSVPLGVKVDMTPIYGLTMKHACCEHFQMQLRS

[13] = Drug metabolism in human liver S9 fraction treated with 10 uM [14C]vorapaxar after 120 mins by LC-MS/MS analysis; format: ADME, subcellular; settings: s9, 2 h
Cytochrome P450 3A4 [14] = target: T2, Cytochrome P450 3A4; test: Drug level in human liver microsomes assessed as CYP3A4-mediated drug metabolism at 25 uM after 120 mins by LC-MS/MS analysis; format: ADME; settings: 2 h
Cytochrome P450 2J2 = target: T6, Cytochrome P450 2J2 (Homo sapiens, UniProt P51589); test: Drug level in human liver microsomes assessed as CYP2J2-mediated drug metabolism at 25 uM after 120 mins by LC-MS/MS analysis; format: ADME; settings: 2 h
T6 sequence (P51589 whole entry): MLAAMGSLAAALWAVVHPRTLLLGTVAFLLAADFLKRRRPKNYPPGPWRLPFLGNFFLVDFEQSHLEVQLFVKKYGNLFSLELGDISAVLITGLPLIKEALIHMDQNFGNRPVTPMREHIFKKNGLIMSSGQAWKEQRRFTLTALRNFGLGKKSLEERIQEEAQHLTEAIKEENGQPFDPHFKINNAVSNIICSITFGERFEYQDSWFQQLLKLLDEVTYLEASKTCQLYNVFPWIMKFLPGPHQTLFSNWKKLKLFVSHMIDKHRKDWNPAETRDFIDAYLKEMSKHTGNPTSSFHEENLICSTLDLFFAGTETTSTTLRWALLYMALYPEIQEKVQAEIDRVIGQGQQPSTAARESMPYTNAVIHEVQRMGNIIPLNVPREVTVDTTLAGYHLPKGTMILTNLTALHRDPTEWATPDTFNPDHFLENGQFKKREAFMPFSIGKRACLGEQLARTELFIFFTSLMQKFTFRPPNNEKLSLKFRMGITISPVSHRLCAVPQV

Liver microsome [15] = test: Drug level in human liver microsomes treated with 10 to 25 uM vorapaxar after 120 mins by LC-MS/MS analysis in presence of sulfaphenazole; format: ADME; settings: 2 h
Cytochrome P450 1A1 [16] = target: T5, Cytochrome P450 1A1; test: Drug level assessed as human recombinant CYP1A1-mediated drug metabolism treated with 25 uM [14C]vorapaxar after 120 mins by LC-MS/MS analysis in presence of NADPH; format: ADME; settings: recombinant enzyme, 2 h
Cytochrome P450 4F3 = target: T7, Cytochrome P450 4F3 (Homo sapiens, UniProt Q08477); test: Drug level assessed as human recombinant CYP4F3A-mediated drug metabolism treated with 25 uM [14C]vorapaxar after 120 mins by LC-MS/MS analysis in presence of NADPH; format: ADME; settings: recombinant enzyme, 2 h
T7 sequence (Q08477 whole entry): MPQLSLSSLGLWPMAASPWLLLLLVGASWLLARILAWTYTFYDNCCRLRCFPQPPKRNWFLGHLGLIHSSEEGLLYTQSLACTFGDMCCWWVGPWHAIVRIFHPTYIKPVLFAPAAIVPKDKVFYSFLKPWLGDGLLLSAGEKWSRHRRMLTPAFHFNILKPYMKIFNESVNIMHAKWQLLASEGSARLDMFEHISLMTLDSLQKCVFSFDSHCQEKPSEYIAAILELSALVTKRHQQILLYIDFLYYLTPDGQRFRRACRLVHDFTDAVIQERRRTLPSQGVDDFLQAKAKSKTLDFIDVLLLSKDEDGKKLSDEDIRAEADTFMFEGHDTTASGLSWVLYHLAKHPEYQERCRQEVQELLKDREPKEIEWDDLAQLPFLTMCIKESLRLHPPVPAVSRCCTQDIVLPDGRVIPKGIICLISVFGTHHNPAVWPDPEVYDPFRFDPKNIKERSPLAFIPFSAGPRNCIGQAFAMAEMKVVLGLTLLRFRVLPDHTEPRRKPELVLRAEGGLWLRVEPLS

Cytochrome P450 1A2 [17] = target: T3, Cytochrome P450 1A2; test: Activity of human recombinant CYP1A2 assessed as enzyme-mediated drug metabolism treated with 10 uM [14C]vorapaxar after 120 mins by LC-MS/MS analysis in presence of NADPH; format: ADME; settings: 2 h

T4 sequence (P33261 whole entry): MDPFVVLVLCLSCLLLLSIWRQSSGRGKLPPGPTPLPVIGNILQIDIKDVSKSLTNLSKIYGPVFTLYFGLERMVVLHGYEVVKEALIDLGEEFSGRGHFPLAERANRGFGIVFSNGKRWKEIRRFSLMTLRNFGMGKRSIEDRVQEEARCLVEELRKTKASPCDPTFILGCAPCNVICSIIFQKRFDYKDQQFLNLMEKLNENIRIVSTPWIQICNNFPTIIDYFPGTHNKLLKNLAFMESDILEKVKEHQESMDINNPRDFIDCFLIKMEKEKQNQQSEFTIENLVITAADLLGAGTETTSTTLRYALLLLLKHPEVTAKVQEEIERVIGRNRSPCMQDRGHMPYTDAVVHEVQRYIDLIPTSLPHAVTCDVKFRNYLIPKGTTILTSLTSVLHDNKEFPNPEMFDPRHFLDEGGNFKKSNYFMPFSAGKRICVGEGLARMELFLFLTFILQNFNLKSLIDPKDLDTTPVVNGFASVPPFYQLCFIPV
T1 sequence (P20815 whole entry): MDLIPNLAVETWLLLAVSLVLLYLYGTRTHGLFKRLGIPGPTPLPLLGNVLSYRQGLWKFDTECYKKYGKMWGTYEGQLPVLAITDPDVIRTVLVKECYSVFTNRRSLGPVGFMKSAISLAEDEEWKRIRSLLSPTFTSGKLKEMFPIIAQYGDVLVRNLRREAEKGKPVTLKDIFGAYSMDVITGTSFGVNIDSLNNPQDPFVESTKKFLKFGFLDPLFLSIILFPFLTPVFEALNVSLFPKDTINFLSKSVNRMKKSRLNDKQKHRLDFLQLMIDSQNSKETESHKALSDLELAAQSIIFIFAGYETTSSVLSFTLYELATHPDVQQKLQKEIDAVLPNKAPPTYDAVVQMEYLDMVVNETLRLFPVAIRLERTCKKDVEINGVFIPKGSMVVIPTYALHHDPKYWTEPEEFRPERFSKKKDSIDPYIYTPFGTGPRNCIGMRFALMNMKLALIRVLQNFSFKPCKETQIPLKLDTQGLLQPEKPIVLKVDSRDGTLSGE
T2 sequence (P08684 whole entry): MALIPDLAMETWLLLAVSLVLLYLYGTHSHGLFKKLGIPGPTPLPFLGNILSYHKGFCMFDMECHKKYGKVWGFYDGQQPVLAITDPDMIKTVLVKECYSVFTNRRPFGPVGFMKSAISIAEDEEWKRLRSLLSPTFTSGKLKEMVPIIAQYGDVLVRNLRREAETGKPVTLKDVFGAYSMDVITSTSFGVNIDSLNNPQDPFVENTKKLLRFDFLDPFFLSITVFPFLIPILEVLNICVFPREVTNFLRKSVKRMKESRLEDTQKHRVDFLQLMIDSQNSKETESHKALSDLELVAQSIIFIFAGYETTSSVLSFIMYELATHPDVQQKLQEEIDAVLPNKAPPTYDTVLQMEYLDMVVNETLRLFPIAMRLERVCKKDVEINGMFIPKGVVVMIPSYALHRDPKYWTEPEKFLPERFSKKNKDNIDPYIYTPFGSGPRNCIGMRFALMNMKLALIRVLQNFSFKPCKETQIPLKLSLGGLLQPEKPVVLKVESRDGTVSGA
Cytochrome P450 2C9, sequence (P11712 whole entry): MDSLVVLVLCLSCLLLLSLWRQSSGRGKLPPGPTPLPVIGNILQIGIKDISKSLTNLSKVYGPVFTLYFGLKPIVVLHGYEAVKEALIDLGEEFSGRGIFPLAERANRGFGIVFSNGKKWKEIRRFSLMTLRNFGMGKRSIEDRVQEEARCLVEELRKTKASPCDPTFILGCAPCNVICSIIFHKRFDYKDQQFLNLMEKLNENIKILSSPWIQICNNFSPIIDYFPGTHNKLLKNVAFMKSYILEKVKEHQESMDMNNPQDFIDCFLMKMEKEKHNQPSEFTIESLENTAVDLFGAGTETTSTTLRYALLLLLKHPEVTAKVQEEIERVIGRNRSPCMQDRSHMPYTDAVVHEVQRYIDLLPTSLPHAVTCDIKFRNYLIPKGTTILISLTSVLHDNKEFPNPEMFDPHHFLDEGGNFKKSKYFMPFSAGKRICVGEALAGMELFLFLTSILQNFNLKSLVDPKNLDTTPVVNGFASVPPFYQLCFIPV

Compound recovery (Liver microsome [1]): 5.12% | Drug metabolism (Cytochrome P450 3A5 [2]): metabolite_detected | Compound recovery (Cytochrome P450 3A4 [3]): 22.1% | Drug metabolism (Liver microsome [4]): metabolite_detected | Drug metabolism (Liver microsome [5]): metabolite_detected | Drug metabolism (Liver microsome [6]): metabolite_detected | Compound recovery (Cytochrome P450 3A5 [7]): 0.15% | Compound recovery (Cytochrome P450 2C9): below level of quantification | Drug metabolism (Cytochrome P450 1A2 [8]): metabolite_detected | Drug metabolism (Cytochrome P450 2C19 [9]): metabolite_detected | Drug metabolism (Liver microsome [10]): metabolite_detected | Compound recovery (Cytochrome P450 2C19 [11]): 5.91% | Compound recovery (Cytochrome P450 1A1 [12]): 1.96% | Compound recovery [13]: 3.42% | Drug metabolism (Cytochrome P450 3A4 [14]): metabolite_detected | Drug metabolism (Cytochrome P450 2J2): metabolite_detected | Drug metabolism (Liver microsome [15]): metabolite_detected | Drug metabolism (Cytochrome P450 1A1 [16]): metabolite_detected | Drug metabolism (Cytochrome P450 4F3): metabolite_detected | Compound recovery (Cytochrome P450 1A2 [17]): 0.23%
Compound: C[C@H]1OC(=O)[C@@H]2C[C@@H]3C[C@H](N)CC[C@H]3[C@H](/C=C/c3ccc(-c4cccc(F)c4)cn3)[C@H]12

Source: ChEMBL document CHEMBL3526033, “Identification of human liver cytochrome P450 enzymes involved in the metabolism of SCH 530348 (Vorapaxar), a potent oral thrombin protease-activated receptor 1 antagonist” (Drug Metab Dispos, 2011)
